Test results reported in patent publication US20260102501A1, “ANTI-CANCER NUCLEAR HORMONE RECEPTOR-TARGETING COMPOUNDS” (Nuvation Bio Inc., priority 2022, published 2026).
Structures can show the parent of a compound that is named as a salt.

Assays:
[1] = target: T1, full-length androgen receptor (HEK293 cells stably expressing) (Homo sapiens, UniProt P10275); experiment: AR antagonism assay (luciferase reporter)
T1 sequence (P10275 1-920): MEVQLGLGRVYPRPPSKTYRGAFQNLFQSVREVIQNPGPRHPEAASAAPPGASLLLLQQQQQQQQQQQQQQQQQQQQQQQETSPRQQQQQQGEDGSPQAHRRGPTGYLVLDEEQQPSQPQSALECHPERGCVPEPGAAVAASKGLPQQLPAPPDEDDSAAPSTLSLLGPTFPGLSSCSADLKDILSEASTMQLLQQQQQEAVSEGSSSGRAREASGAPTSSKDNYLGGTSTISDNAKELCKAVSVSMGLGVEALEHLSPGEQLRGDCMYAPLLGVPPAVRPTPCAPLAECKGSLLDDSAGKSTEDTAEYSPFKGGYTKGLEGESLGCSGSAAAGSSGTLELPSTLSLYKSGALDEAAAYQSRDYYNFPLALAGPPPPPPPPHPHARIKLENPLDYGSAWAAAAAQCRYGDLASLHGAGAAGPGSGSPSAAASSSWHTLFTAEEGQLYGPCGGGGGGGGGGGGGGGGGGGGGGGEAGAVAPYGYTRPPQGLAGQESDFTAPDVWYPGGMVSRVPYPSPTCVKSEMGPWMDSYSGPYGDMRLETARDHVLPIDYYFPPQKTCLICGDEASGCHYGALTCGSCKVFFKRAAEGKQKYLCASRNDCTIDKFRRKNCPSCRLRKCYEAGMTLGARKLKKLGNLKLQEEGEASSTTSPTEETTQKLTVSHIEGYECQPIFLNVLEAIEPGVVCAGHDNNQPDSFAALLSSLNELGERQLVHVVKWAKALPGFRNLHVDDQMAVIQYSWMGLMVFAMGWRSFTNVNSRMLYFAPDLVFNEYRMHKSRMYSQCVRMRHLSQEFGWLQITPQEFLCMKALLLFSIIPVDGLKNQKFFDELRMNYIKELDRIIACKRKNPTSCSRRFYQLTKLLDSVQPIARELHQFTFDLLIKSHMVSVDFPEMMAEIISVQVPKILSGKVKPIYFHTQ

[2] = target: T2, GR (cytosol from IM-9 cells) (Homo sapiens, UniProt P04150); experiment: GR binding assay (3H-Dexamethasone displacement)
T2 sequence (P04150 1-777): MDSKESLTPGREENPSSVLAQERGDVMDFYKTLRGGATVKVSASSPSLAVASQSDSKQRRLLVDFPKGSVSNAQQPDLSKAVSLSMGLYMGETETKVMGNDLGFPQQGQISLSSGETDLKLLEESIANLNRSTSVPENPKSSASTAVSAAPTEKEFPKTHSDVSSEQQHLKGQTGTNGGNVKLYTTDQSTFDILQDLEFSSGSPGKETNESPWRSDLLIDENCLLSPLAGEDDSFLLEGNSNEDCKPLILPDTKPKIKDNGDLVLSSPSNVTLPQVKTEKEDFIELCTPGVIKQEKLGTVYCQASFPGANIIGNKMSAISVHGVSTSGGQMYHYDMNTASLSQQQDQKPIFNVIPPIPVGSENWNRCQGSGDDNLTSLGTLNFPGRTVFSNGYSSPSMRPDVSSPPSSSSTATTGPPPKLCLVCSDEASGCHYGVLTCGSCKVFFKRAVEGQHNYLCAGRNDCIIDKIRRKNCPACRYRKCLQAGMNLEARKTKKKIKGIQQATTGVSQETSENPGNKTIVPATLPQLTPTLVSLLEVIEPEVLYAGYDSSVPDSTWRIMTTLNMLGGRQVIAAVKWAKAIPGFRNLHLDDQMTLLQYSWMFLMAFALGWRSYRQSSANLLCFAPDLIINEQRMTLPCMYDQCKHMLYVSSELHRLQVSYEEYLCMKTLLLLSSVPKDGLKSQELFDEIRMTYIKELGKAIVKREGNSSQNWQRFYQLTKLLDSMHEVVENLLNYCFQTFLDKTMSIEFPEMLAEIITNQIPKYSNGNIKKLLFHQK

[3] = tested on: IEC6 cells; experiment: Cell viability assay (CellTiterGlo); conditions: Rattus norvegicus, IEC-6, 144 h, read-out: IEC-6 (IC50, nM)
[4] = tested on: T47D cells; experiment: Cell viability assay (CellTiterGlo); format: cell-based; conditions: Homo sapiens, 144 h, 6 days incubation, CellTiterGlo, read-out: T47D (IC50)
[5] = tested on: 22Rv1 cells; experiment: Cell viability assay (CellTiterGlo); conditions: Homo sapiens, 22Rv1, 144 h, read-out: 22RV1 (IC50, nM)
[6] = target: T3, Progesterone Receptor (PR)-LBD and coactivator peptide (Homo sapiens, UniProt P06401); experiment: PR coactivator antagonist assay; conditions: 2.5 nM PR-LBD, 10 nM progesterone-induced fluorescence response
T3 sequence (P06401 679-913 limits assumed): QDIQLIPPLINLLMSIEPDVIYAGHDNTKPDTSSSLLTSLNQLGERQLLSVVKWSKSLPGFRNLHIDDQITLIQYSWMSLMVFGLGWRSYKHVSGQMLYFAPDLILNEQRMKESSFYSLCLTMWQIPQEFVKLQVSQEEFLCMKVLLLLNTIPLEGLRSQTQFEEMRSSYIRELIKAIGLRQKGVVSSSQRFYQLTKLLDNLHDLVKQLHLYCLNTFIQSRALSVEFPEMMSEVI

| SMILES | IC50 [1] [nM] | IC50 [2] [nM] | IC50 [3] [nM] | IC50 [4] [nM] | IC50 [5] [nM] | PR antagonism [6] |
| --- | --- | --- | --- | --- | --- | --- |
| CC[C@@]1(O)C(=O)OCc2c1cc1n(c2=O)Cc2c-1nc1cc(F)c(C)c3c1c2[C@@H](NC(=O)COCCCCCCN(C)c1ccc([C@H]2C[C@@]4(C)[C@@H](CC[C@]4(OC(C)=O)C(C)=O)[C@@H]4CCC5=CC(=O)CCC5=C42)cc1)CC3 [Compound No. 47, (8S,11R,13S,14S,17R)-17-acetyl-11-(4-((6-(2-(((1S,9S)-9-ethyl-5-fluoro-9-hydroxy-4-methyl-10,13-dioxo-2,3,9,10,13,15-hexahydro-1H,12H-benzo[de]pyrano [3′,4′:6,7]indolizino[1,2-b]quinolin-1-yl)amino)-2-oxoethoxy)hexyl)(methyl)amino)phenyl)-13-methyl-3-oxo-2,3,6,7,8,11,12,13,14,15,16,17-dodecahydro-1H-cyclopenta[a]phenanthren-17-yl acetate] | 10 to 100 | < 10 | 101 to 1000 | 10 to 100 | – | – |
| CC[C@@]1(O)C(=O)OCc2c1cc1n(c2=O)Cc2cc3c(CN4CCN(CCCCCCN(C)c5ccc([C@H]6C[C@@]7(C)[C@@H](CC[C@]7(OC(C)=O)C(C)=O)[C@@H]7CCC8=CC(=O)CCC8=C76)cc5)CC4)c(O)ccc3nc2-1 [Compound 36, (8S,11R,13S,14S,17R)-17-acetyl-11-(4-((6-(4-(((S)-4-ethyl-4,9-dihydroxy-3,14-dioxo-3,4,12,14-tetrahydro-1H-pyrano[3′,4′:6,7]indolizino[1,2-b]quinolin-10-yl)methyl)piperazin-1-yl)hexyl)(methyl)amino)phenyl)-13-methyl-3-oxo-2,3,6,7,8,11,12,13,14,15,16,17-dodecahydro-1H-cyclopenta[a]phenanthren-17-yl acetate] | 101 to 1000 | 101 to 1000 | 101 to 1000 | 10 to 100 | – | – |
| CC[C@@]1(O)C(=O)OCc2c1cc1n(c2=O)Cc2cc3c(CN4CCN(C(=O)C5CCN(c6ccc(C(=O)N[C@H]7CC[C@H](Oc8ccc(C#N)c(Cl)c8C)CC7)nn6)CC5)CC4)c(OC(=O)N4C[C@H](C)N(C)C[C@H]4C)ccc3nc2-1 [Compound 30, (S)-10-((4-(1-(6-(((1r,4r)-4-(3-Chloro-4-cyano-2-methylphenoxy)cyclohexyl)carbamoyl)-pyridazin-3-yl)piperidine-4-carbonyl)piperazin-1-yl)methyl)-4-ethyl-4-hydroxy-3,14-dioxo-3,4,12,14-tetrahydro-1H-pyrano[3′,4′:6,7]indolizino[1,2-b]quinolin-9-yl (2R,5S)-2,4,5-trimethylpiperazine-1-carboxylate Formate] | > 1000 | > 1000 | > 1000 | – | 101 to 1000 | – |
| CC[C@@]1(O)C(=O)OCc2c1cc1n(c2=O)Cc2cc3c(CN(C)C)c(OC(=O)N4CCN(CC5CCN(c6ccc(C(=O)N[C@H]7CC[C@H](Oc8ccc(C#N)c(Cl)c8C)CC7)nn6)CC5)CC4)ccc3nc2-1 [Compound 31, (S)-10-((Dimethylamino)methyl)-4-ethyl-4-hydroxy-3,14-dioxo-3,4,12,14-tetrahydro-1H-pyrano[3′,4′:6,7]indolizino[1,2-b]quinolin-9-yl 4-((1-(6-(((1r,4r)-4-(3-chloro-4-cyano-2-methylphenoxy)cyclohexyl)carbamoyl)pyridazin-3-yl)piperidin-4-yl)methyl)piperazine-1-carboxylate Formate] | > 1000 | > 1000 | 101 to 1000 | – | 101 to 1000 | – |
| CC[C@@]1(O)C(=O)OCc2c1cc1n(c2=O)Cc2c-1nc1cc(F)c(C)c3c1c2[C@@H](NCC1CCN(CC2CCN(C(=O)CN(C)c4ccc([C@H]5C[C@@]6(C)[C@@H](CC[C@]6(OC(C)=O)C(C)=O)[C@@H]6CCC7=CC(=O)CCC7=C65)cc4)CC2)CC1)CC3 [Compound No. 51, (8S,11R,13S,14S,17R)-17-acetyl-11-(4-((2-(4-((4-((((1S,9S)-9-ethyl-5-fluoro-9-hydroxy-4-methyl-10,13-dioxo-2,3,9,10,13,15-hexahydro-1H,12H-benzo[de]pyrano[3′,4′:6,7]indolizino[1,2-b]quinolin-1-yl)amino)methyl)piperidin-1-yl)methyl)piperidin-1-yl)-2-oxoethyl)(methyl)amino)phenyl)-13-methyl-3-oxo-2,3,6,7,8,11,12,13,14,15,16,17-dodecahydro-1H-cyclopenta[a]phenanthren-17-yl acetate] | 10 to 100 | 10 to 100 | 101 to 1000 | – | 10 to 100 | – |
| CC[C@@]1(O)C(=O)OCc2c1cc1n(c2=O)Cc2c-1nc1cc(F)c(C)c3c1c2[C@@H](N(C)C(=O)COCC1CCN(CCCCCCCN(C)c2ccc([C@H]4C[C@@]5(C)[C@@H](CC[C@]5(OC(C)=O)C(C)=O)[C@@H]5CCC6=CC(=O)CCC6=C54)cc2)CC1)CC3 [Compound 55, (8S,11R,13S,14S,17R)-17-acetyl-11-(4-((7-(4-((2-(((1S,9S)-9-ethyl-5-fluoro-9-hydroxy-4-methyl-10,13-dioxo-2,3,9,10,13,15-hexahydro-1H,12H-benzo[de]pyrano[3′,4′:6,7]indolizino[1,2-b]quinolin-1-yl)(methyl)amino)-2-oxoethoxy)methyl)piperidin-1-yl)heptyl)(methyl)amino)phenyl)-13-methyl-3-oxo-2,3,6,7,8,11,12,13,14,15,16,17-dodecahydro-1H-cyclopenta[a]phenanthren-17-yl acetate] | 101 to 1000 | < 10 | > 1000 | 101 to 1000 | – | – |
| CC[C@@]1(O)C(=O)OCc2c1cc1n(c2=O)Cc2cc3c(CN(C)C)c(OCC4CCN(C(=O)CN(C)c5ccc([C@H]6C[C@@]7(C)[C@@H](CC[C@]7(OC(C)=O)C(C)=O)[C@@H]7CCC8=CC(=O)CCC8=C76)cc5)CC4)ccc3nc2-1 [Compound No. 19, (8S,11R,13S,14S,17R)-17-Acetyl-11-(4-((2-(4-((((S)-10-((dimethylamino)methyl)-4-ethyl-4-hydroxy-3,14-dioxo-3,4,12,14-tetrahydro-1H-pyrano[3′,4′:6,7]indolizino[1,2-b]quinolin-9-yl)oxy)methyl)-piperidin-1-yl)-2-oxoethyl)(methyl)amino)phenyl)-13-methyl-3-oxo-2,3,6,7,8,11,12,13,14,15,16,17-dodeca-hydro-1H-cyclopenta[a]phenanthren-17-yl acetate] | > 1000 | < 10 | > 1000 | 101 to 1000 | – | a (IC50 =< 10 nM) |
